Source: patent publication US6974671B1, “Methods for indentifying compounds that modulate gluconeogenesis through the binding of CREB to the PGC-1 promoter” (Salk Institute for Biological Studies, priority 2001, dated 2005)

Legend:
PEPCK promoter = assay: Transient assay of HepG2 cells with PEPCK luciferase reporter; type: cell-based, human; settings: HepG2, PEPCK reporter plasmid, cAMP agonist
From the text: (§1) Plasmids. Expression plasmids pZEO-ACREB^22 and pcDNA3-PGC-1^24 have been described previously. Liver specific A-CREB transgene was constructed by inserting A-CREB cDNA into a liver specific albumin promoter/enhancer plasmid^5. To construct luciferase expression plasmids −490PEPCKLuc and −355PEPCKLuc BamHI/BglII fragments of the PEPCK promoter region containing 490 or 355 bp of the mouse PEPCK 5′-flanking region, respectively, were cloned into the pGL3 basic luciferase reporter vector (Promega, St. Luis Obispo). PGC-1 reporter mPGCLuc was constructed by inserting a […] fragment of the mouse PGC-1 promoter containing 170 bp of the 5′-flanking region and 68 bp of Exon 1 into the pGL3 vector.
(§2) Cell culture and transient transfection assays. Human hepatoma HepG2 cells were transfected using the Lipofectamine 2000 reagent (GIBCO BRL) according to manufacturers instructions (500 ng of indicator plasmid/well). Where indicated, expression plasmids encoding A-CREB (pZeo-ACREB)^22 or PGC-1 (pcDNA3-PGC-1)^24 were cotransfected (50 ng or 800 ng plasmid/well, respectively). Cotransfections were performed with a constant DNA amount by adding the empty pcDNA3 vector (Invitrogen). Cells were treated with Forskolin (10 μM) and/or Dexamethasone (100 nM) or insulin (10 nM) for 14 h. […]

PGC-1 promoter = assay: Transient assay of HepG2 cells with PGC-1 luciferase reporter; type: cell-based, human
From the text: as §1, §2

Compound | stimulation of PEPCK promoter activity (PEPCK promoter) | induction of PGC-1 promoter activity (PGC-1 promoter; HepG2, PGC-1 luciferase reporter (-170 to +68), forskolin 10 μM) | effect on PGC-1 reporter activity (PGC-1 promoter; HepG2, insulin 10 nM)
C=C[C@@]1(C)CC(=O)[C@]2(O)[C@@]3(C)[C@@H](O)CCC(C)(C)[C@@H]3[C@H](O)[C@H](OC(C)=O)[C@@]2(C)O1 [cAMP agonist, Forskolin] | 3–4 fold | 3–4 fold | –
insulin | – | – | blocked
